US20240336634A1, “AGONISTS OF TYRO3 AS PROTECTION AGAINST PODOCYTE INJURY IN KIDNEY GLOMERULAR DISEASE” (The Government of the United States of America as …, priority 2021, published 2024)

Tests used:
Axl = molecular target: T1, Axl (Homo sapiens, UniProt P30530); test: Axl phosphorylation in podocytes, western blot with anti-phospho-TAM receptor antibody; type: cell-based; conditions: different doses, 30 minutes (FIG. 4A)
T1 construct: endogenous in cells; host or cells: human podocytes
T1 sequence (P30530 26-894): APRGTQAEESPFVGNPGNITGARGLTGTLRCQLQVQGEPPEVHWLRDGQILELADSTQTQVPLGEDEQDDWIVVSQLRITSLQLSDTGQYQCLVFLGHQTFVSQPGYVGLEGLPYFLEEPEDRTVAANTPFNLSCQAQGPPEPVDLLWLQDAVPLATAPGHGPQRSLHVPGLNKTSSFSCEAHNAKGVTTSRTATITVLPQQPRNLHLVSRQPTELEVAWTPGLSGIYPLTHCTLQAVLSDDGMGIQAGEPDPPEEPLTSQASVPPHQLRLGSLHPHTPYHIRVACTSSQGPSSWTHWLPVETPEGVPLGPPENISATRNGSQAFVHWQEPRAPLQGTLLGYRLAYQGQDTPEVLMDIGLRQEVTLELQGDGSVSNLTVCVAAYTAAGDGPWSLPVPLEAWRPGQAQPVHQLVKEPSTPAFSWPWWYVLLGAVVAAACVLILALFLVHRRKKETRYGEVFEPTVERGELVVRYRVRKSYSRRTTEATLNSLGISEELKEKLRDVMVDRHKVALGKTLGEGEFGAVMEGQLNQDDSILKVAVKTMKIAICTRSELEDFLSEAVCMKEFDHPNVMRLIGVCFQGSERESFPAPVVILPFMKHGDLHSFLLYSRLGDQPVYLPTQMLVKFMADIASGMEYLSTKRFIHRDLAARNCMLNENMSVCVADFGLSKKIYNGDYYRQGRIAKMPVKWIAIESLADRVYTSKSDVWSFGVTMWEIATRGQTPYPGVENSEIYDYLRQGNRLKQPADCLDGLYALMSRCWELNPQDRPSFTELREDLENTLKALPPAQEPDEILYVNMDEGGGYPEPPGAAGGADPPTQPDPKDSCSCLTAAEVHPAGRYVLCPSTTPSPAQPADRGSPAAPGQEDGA
Method: (§1) Referring to FIG. 4B, HEK293T cells were used to confirm the overexpression of Tyro3 and Axl (C: control; OV:overexpression). Referring to FIG. 4C, cells from above transfection were stimulated with C-10 at 100 nM for 30 minutes. Western blot analysis was performed for phospho- and total AKT and GAPDH was used as a control of protein loading. The representative blots of three independent experiments are shown.
(§2) Next, their biological activity was screened by testing their effects on TYRO3, and AKT phosphorylation in podocytes. […] To test the specificity, podocytes were treated with different doses of C-10 for 30 minutes, and then western blot analysis was performed with anti-phospho-Tyro3 antibody, which also recognizes phosphorylation of Mer and Axl. Since three TAM receptors have different molecular weights, they can be distinguished in the SDS gel. […] In addition, TYRO3 and Axl were overexpressed in […] (FIG. 4B), and the effects of C-10 in these cells was determined.

diabetic mice (db/db) = test: Albuminuria and glomerular injury in diabetic db/db mice; type: in vivo; conditions: 2.5 mg/kg from age 10 weeks, 8 weeks
Method: FIG. 6A-C show representative data illustrating that treatment with C-10 improves albuminuria and glomerular injury in diabetic mice. Db/db mice were treated with C-10 at 2.5 mg/kg at age of 10 week, the mice were sacrificed after 8 weeks of treatment.
The effect of C-10 on albuminuria and glomerular injury in diabetic mice was also evaluated. 10 week old db/db mice were treated with C-10 at 2.5 mg/kg. Mice were sacrificed at week 8. As shown in FIGS. 6A-C, administration of C-10 improved both albuminuria and glomerular injury relative to control.

AKT = AKT phosphorylation in podocytes, western blot; type: cell-based; conditions: 30 minutes, screening (FIG. 2)
Method: (§3) FIG. 2A-C show representative data illustrating screening of TYRO3 agonists by activation of TYRO3, AKT, and NK-κB target gene expression. Referring to FIG. 2A and FIG. 2B, podocytes were treated with control vehicle (C) or different TYRO3 agonists (compounds 1-10) for 30 minutes. Western blot analysis was performed for phospho- or total Tyro3 (FIG. 2A) and AKT (FIG. 2B). Referring to FIG. 2C, podocytes were treated with vehicle control (C), TNF-α (10 ng) alone (T), or together with different TYRO3 agonists (compounds 1-10) for 2 hours, and then q-PCR analysis was performed for NF-kB target gene expression (IL-6). N=3, *p<0.01 as compared to TNF-α alone.
(§4) FIG. 3A and FIG. 3B show representative data illustrating the time course and dose effects of C-10 on the phosphorylation of TYRO3, AKT, and NK-κB target gene expression. Referring to FIG. 3A, podocytes were treated with C-10 for 30 minutes at different doses (left) or at 100 nM for different time period (right). […]
(§5) Next, their biological activity was screened by testing their effects on TYRO3, and AKT phosphorylation in podocytes. […] In addition, TYRO3 and Axl were overexpressed in podocytes (FIG. 4B), and the effects of C-10 in these cells was determined.

[1] = test system: NF-κB target gene expression (IL-6); test: NF-κB target gene expression in TNF-α treated podocytes, q-PCR; type: cell-based; conditions: TNF-α (10 ng), 2 hours, IL-6 q-PCR
Method: as §3, §4, §5

TYRO3 = molecular target: T2, TYRO3 (Homo sapiens, UniProt Q06418); test: TYRO3 phosphorylation in podocytes, western blot; type: cell-based; conditions: for TYRO3 phosphorylation: podocytes, 30 minutes
T2 construct: testing their effects on TYRO3, and AKT phosphorylation in podocytes; endogenous in cells
T2 sequence (Q06418 41-890): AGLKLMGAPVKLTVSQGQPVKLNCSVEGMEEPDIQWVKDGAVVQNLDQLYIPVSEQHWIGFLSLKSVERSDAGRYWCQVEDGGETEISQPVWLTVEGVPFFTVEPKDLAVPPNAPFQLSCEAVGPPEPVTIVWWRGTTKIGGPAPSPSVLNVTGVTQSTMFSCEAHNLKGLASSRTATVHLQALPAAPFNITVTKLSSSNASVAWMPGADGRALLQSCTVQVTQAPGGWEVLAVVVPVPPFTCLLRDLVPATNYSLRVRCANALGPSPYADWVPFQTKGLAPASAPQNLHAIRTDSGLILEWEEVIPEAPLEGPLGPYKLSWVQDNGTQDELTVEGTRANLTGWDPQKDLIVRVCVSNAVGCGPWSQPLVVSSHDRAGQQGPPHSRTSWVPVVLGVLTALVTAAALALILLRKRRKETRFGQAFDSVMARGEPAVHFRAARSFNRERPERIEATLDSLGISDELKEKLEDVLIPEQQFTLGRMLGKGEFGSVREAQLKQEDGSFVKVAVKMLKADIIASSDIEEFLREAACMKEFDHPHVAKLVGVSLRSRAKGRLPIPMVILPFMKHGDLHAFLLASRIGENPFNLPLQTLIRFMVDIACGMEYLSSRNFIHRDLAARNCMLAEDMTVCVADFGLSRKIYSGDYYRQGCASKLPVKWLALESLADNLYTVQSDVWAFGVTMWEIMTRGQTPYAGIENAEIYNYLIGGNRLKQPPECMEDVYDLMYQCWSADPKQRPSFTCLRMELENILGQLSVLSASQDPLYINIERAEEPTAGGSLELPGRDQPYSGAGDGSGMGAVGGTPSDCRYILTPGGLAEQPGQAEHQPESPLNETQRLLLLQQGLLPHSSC
Method: as §3
FIG. 3A and FIG. 3B show representative data illustrating the time course and dose effects of C-10 on the phosphorylation of TYRO3, AKT, and NK-κB target gene expression. Referring to FIG. 3A, podocytes were treated with C-10 for 30 minutes at different doses (left) or at 100 nM for different time period (right). Referring to FIG. 3B, podocytes were treated with vehicle control TNF-α (10 ng) alone or together with different concentrations of C-10 for 2 hours, and then q-PCR analysis was performed for NF-kB target gene expression (IL-6 and CCL2). N=3, *p<0.01 and **p<0.001 as compared to TNF-α alone.
as §1, §2

Mer = molecular target: T3, Mer (Homo sapiens, UniProt Q12866); test: Mer phosphorylation in podocytes, western blot with anti-phospho-TAM receptor antibody; type: cell-based; conditions: different doses, 30 minutes (FIG. 4A)
T3 construct: endogenous in cells; host or cells: human podocytes
T3 sequence (Q12866 21-999): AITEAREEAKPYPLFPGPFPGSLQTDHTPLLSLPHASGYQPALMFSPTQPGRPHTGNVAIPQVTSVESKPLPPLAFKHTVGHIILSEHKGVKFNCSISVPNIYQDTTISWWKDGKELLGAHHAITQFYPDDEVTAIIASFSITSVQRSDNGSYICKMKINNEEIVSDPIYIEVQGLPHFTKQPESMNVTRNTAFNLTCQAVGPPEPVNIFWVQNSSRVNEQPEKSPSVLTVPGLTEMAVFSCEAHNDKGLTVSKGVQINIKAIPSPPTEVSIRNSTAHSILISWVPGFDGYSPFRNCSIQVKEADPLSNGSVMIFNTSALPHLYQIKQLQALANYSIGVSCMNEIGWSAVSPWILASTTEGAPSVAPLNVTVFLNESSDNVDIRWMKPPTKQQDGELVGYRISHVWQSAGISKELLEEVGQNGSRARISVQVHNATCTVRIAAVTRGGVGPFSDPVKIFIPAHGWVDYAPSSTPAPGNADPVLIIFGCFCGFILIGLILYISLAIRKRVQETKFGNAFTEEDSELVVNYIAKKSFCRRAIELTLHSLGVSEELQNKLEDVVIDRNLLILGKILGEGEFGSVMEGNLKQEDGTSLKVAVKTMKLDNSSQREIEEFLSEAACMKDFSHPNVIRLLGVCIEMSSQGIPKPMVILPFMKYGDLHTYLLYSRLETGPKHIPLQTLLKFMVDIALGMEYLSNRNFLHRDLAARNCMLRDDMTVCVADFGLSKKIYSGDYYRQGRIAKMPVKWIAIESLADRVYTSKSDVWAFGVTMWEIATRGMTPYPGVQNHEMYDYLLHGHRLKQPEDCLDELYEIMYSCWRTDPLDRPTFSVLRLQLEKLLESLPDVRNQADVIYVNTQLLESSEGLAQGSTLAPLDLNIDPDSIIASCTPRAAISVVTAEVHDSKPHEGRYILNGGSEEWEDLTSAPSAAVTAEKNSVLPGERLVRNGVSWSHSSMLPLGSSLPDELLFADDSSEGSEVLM
Method: as §1, §2

[2] = test system: mice with Adriamycin-induced nephropathy (ADRN); test: Adriamycin-induced nephropathy (ADRN) in mice; type: in vivo
Method: FIG. 5A-C show representative data illustrating that C-10 treatment attenuates adriamycin-induced nephropathy (ADRN) in mice. 10-week old male Balb/c mice were injected with adriamycin (8 mg/kg) and treated with C-10 at 20 mg/kg from day 3 post-injection. All mice were sacrificed at day 28 post-injection.
The effect of C-10 was determined in vivo in mice with Adriamycin-induced nephropathy (ADRN). ADRN was induced in the Balb/c mice by injection of adriamycin at a dose of 8 mg/kg at the age of 10 weeks. The mice were fed with either C-10 at a dose of 20 mg/kg body weight or vehicle by daily gavage started on day 3 after they received an injection of Adriamycin, and ending in 4 weeks when the mice were sacrificed.

[3] = test system: TYRO3 overexpressing cells; test: AKT phosphorylation in TYRO3 overexpressing cells; type: cell-based; conditions: 100 nM, 30 minutes (FIG. 4C)
Method: as §1, §2

[4] = ADRN Balb/c mice, 20 mg/kg daily gavage from day 3, 4 weeks

Row | SMILES | phosphorylation of Axl (Axl) | albuminuria (diabetic mice (db/db)) | glomerular injury (diabetic mice (db/db)) | AKT phosphorylation (AKT) | NF-κB target gene expression [1] | specificity as agonist for TYRO3 among TAM receptors (TYRO3; from phosphorylation of Tyro3, Axl and Mer) | TYRO3 phosphorylation (TYRO3; screening (FIG. 2A)) | TYRO3 phosphorylation (TYRO3; different doses, anti-phospho-Tyro3 antibody (FIG. 4A)) | effect as TYRO3 agonist compared between hits (TYRO3; screening in podocytes) | phosphorylation of Mer (Mer) | toxicity during the treatment period ([2]; ADRN Balb/c mice, 20 mg/kg daily gavage) | albuminuria [2, 4] | glomerular injury [2, 4] | adriamycin-induced nephropathy (ADRN) ([2]; Balb/c mice, 20 mg/kg from day 3, sacrificed day 28) | AKT phosphorylation in TYRO3 overexpressing cells [3]
1 | Cc1sc(-c2ccc(B(O)O)s2)nc1O [C-10, (5-(4-Hydroxy-5-Methylthiazol-2-yl)Thiophen-2-yl)Boronic Acid] | did not affect | improved | improved | induced significantly | suppressed | quite specific agonist for TYRO3 | induced significantly | induced significantly | appears better than C-8 | slightly reduced | No obvious toxicity | significantly reduced | significantly reduced | attenuates | induced
2 | COc1cc(-c2nc(O)c(C)s2)ccc1Br [C-8, 2-(4-Bromo-3-Methoxyphenyl)-5-Methylthiazol-4-ol] |  |  |  | induced significantly | suppressed |  | induced significantly |  |  |  |  |  |  |  | 
